One experiment addresses BRD4 (BDI_K57-E168) (Homo sapiens (Human), UniProt O60885). As to the kind of experiment: TR-FRET bromodomain binding assay, BRD4 BDI. The note with it: mean Ki, calculated from IC50, probe Kd and probe concentration. Summed up:
(§1)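 Probe displacement measured by TR-FRET after 1 h at room temperature, in 20 mM sodium phosphate pH 6.0 and 2% DMSO. BDI used 12 nM protein with 100 nM probe, BDII 4 nM with 30 nM probe, each with 1 nM europium antibody. Ki derived from fitted IC50, probe Kd and probe level.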

Another experiment addresses BRD4 (BDII_E352-M457) (Homo sapiens (Human), UniProt O60885). Nature of the experiment: TR-FRET bromodomain binding assay, BRD4 BDII. Conditions: mean Ki, calculated from IC50, probe Kd and probe concentration. The gist of the method: as §1

Our source for the Ki values is patent US10633379B2, “Bromodomain inhibitors” (AbbVie Inc., priority 2016, dated 2020).

Usually Ki stands for the equilibrium dissociation constant of an inhibitor or competing ligand from its target. For `CCNC(=O)c1cc2c(-c3cc(C(C)(C)O)ccc3Oc3c(C)cccc3C)cn(C)c(=O)c2[nH]1` [Example 3, 4-[2-(2,6-dimethylphenoxy)-5-(2-hydroxypropan-2-yl)phenyl]-N-ethyl-6-methyl-7-oxo-6,7-dihydro-1H-pyrrolo[2,3-c]pyridine-2-carboxamide], the figures for the inhibition constant (Ki) at BRD4 (BDI_K57-E168) and on BRD4 (BDII_E352-M457) were 0.404 µM and 0.0011 µM, respectively.

As for `Cc1cc(F)cc(C)c1Oc1ccc(C(C)(C)O)nc1-c1cn(C)c(=O)c2[nH]c(C(=O)NC(C)(C)C)cc12` [Example 97, N-tert-butyl-4-[3-(4-fluoro-2,6-dimethylphenoxy)-6-(2-hydroxypropan-2-yl)pyridin-2-yl]-6-methyl-7-oxo-6,7-dihydro-1H-pyrrolo[2,3-c]pyridine-2-carboxamide], the Ki on BRD4 (BDI_K57-E168) was 0.657 µM; at BRD4 (BDII_E352-M457), 0.0247 µM.

Consider `CCNC(=O)c1cc2c(-c3cc(C(C)(C)O)ccc3Oc3c(C)cccc3Cl)cn(C)c(=O)c2[nH]1` [Example 30, 4-[2-(2-chloro-6-methylphenoxy)-5-(2-hydroxypropan-2-yl)phenyl]-N-ethyl-6-methyl-7-oxo-6,7-dihydro-1H-pyrrolo[2,3-c]pyridine-2-carboxamide], for which the inhibition constant (Ki) is 0.279 µM at BRD4 (BDI_K57-E168) and 0.0019 µM at BRD4 (BDII_E352-M457).

With `CCNC(=O)c1cc2c(-c3cc(C4(O)CC=CC4)cnc3Oc3c(C)cccc3C)cn(C)c(=O)c2[nH]1` [Example 4, 4-[2-(2,6-dimethylphenoxy)-5-(1-hydroxycyclopent-3-en-1-yl)pyridin-3-yl]-N-ethyl-6-methyl-7-oxo-6,7-dihydro-1H-pyrrolo[2,3-c]pyridine-2-carboxamide], the values for the Ki at BRD4 (BDI_K57-E168) and on BRD4 (BDII_E352-M457) were 0.215 µM and 0.0031 µM, respectively.

In the case of `Cn1cc(-c2cc(C(C)(C)O)cnc2Oc2c(Cl)cc(F)cc2Cl)c2cc(C(=O)NC(C)(C)C)[nH]c2c1=O` [Example 100, N-tert-butyl-4-[2-(2,6-dichloro-4-fluorophenoxy)-5-(2-hydroxypropan-2-yl)pyridin-3-yl]-6-methyl-7-oxo-6,7-dihydro-1H-pyrrolo[2,3-c]pyridine-2-carboxamide], the Ki on BRD4 (BDI_K57-E168) was 0.115 µM; on BRD4 (BDII_E352-M457) it was 0.0056 µM.

As for `CCNC(=O)c1cc2c(-c3cc(C(C)(O)CF)cnc3Oc3c(C)cc(F)cc3C)cn(C)c(=O)c2[nH]1` (centres unmarked) [Example 78, N-ethyl-4-[2-(4-fluoro-2,6-dimethylphenoxy)-5-(1-fluoro-2-hydroxypropan-2-yl)pyridin-3-yl]-6-methyl-7-oxo-6,7-dihydro-1H-pyrrolo[2,3-c]pyridine-2-carboxamide], the inhibition constant (Ki) was 0.253 µM at BRD4 (BDI_K57-E168) and 0.0022 µM on BRD4 (BDII_E352-M457).

With `Cc1cccc(Cl)c1Oc1ccc(C(C)(O)CO)cc1-c1cn(C)c(=O)c2[nH]c(C(=O)NC(C)(C)C)cc12` (centres unmarked) [Example 116, N-tert-butyl-4-[2-(2-chloro-6-methylphenoxy)-5-(1,2-dihydroxypropan-2-yl)phenyl]-6-methyl-7-oxo-6,7-dihydro-1H-pyrrolo[2,3-c]pyridine-2-carboxamide], the Ki at BRD4 (BDI_K57-E168) is 0.756 µM; at BRD4 (BDII_E352-M457) it was 0.0029 µM.

Take `CCNC(=O)c1cc2c(-c3cc(C(C)(C)O)c(F)cc3Oc3c(C)cccc3C)cn(C)c(=O)c2[nH]1` [Example 64, 4-[2-(2,6-dimethylphenoxy)-4-fluoro-5-(2-hydroxypropan-2-yl)phenyl]-N-ethyl-6-methyl-7-oxo-6,7-dihydro-1H-pyrrolo[2,3-c]pyridine-2-carboxamide]: the Ki on BRD4 (BDI_K57-E168) was 0.181 µM; at BRD4 (BDII_E352-M457), 0.0004 µM.

`Cc1cc(F)cc(C)c1Oc1ncc(C(C)(C)O)cc1-c1cn(C)c(=O)c2[nH]c(C(=O)NC(C)(C)C(F)(F)F)cc12` [Example 56, 4-[2-(4-fluoro-2,6-dimethylphenoxy)-5-(2-hydroxypropan-2-yl)pyridin-3-yl]-6-methyl-7-oxo-N-(1,1,1-trifluoro-2-methylpropan-2-yl)-6,7-dihydro-1H-pyrrolo[2,3-c]pyridine-2-carboxamide]: the Ki was 0.917 µM at BRD4 (BDI_K57-E168) and 0.0047 µM at BRD4 (BDII_E352-M457).

Take `CCNC(=O)c1cc2c(-c3cc(C(O)(C(C)C)C4CC4)cnc3Oc3c(C)cccc3C)cn(C)c(=O)c2[nH]1` (centres unmarked) [Example 26, 4-[5-(1-cyclopropyl-1-hydroxy-2-methylpropyl)-2-(2,6-dimethylphenoxy)pyridin-3-yl]-N-ethyl-6-methyl-7-oxo-6,7-dihydro-1H-pyrrolo[2,3-c]pyridine-2-carboxamide]: the inhibition constant (Ki) at BRD4 (BDI_K57-E168) is 0.015 µM; at BRD4 (BDII_E352-M457) it was 0.0015 µM.

Turning to `Cc1cc(S(C)(=O)=O)cc(C)c1Oc1ncc(C(C)(C)O)cc1-c1cn(C)c(=O)c2[nH]c(C(=O)NC(C)(C)C)cc12` [Example 92, N-tert-butyl-4-{5-(2-hydroxypropan-2-yl)-2-[4-(methanesulfonyl)-2,6-dimethylphenoxy]pyridin-3-yl}-6-methyl-7-oxo-6,7-dihydro-1H-pyrrolo[2,3-c]pyridine-2-carboxamide], the Ki at BRD4 (BDI_K57-E168) is 0.41 µM; at BRD4 (BDII_E352-M457), 0.0121 µM.

Consider `Cc1cccc(C(F)F)c1Oc1ccc(C(C)(C)O)cc1-c1cn(C)c(=O)c2[nH]c(C(=O)NC(C)(C)C)cc12` [Example 71, N-tert-butyl-4-{2-[2-(difluoromethyl)-6-methylphenoxy]-5-(2-hydroxypropan-2-yl)phenyl}-6-methyl-7-oxo-6,7-dihydro-1H-pyrrolo[2,3-c]pyridine-2-carboxamide], for which the inhibitory constant (Ki) on BRD4 (BDI_K57-E168) was 2.31 µM; on BRD4 (BDII_E352-M457) it was 0.0075 µM.

On to `Cc1cc(F)cc(C)c1Oc1ncc(C(C)(C)O)cc1-c1cn(C)c(=O)c2[nH]c(C(=O)NC(C)(C)C)cc12` [Example 44, N-tert-butyl-4-[2-(4-fluoro-2,6-dimethylphenoxy)-5-(2-hydroxypropan-2-yl)pyridin-3-yl]-6-methyl-7-oxo-6,7-dihydro-1H-pyrrolo[2,3-c]pyridine-2-carboxamide], for which the Ki was 0.323 µM on BRD4 (BDI_K57-E168) and 0.0073 µM on BRD4 (BDII_E352-M457).

Consider `CCNC(=O)c1cc2c(-c3cc(C(C)(C)O)ccc3-c3ccc(OC(F)(F)F)cc3)cn(C)c(=O)c2[nH]1` [Example 110, N-ethyl-4-[4-(2-hydroxypropan-2-yl)-4′-(trifluoromethoxy) [1,1′-biphenyl]-2-yl]-6-methyl-7-oxo-6,7-dihydro-1H-pyrrolo[2,3-c]pyridine-2-carboxamide], for which the results for the Ki at BRD4 (BDI_K57-E168) and at BRD4 (BDII_E352-M457) were 0.224 µM and 0.002 µM, respectively.

`CCNC(=O)c1cc2c(-c3cc(C(C)(C)O)ccc3Oc3c(C)cc(SC)cc3C)cn(C)c(=O)c2[nH]1` [Example 40, 4-{2-[2,6-dimethyl-4-(methylsulfanyl)phenoxy]-5-(2-hydroxypropan-2-yl)phenyl}-N-ethyl-6-methyl-7-oxo-6,7-dihydro-1H-pyrrolo[2,3-c]pyridine-2-carboxamide]: the Ki is 0.773 µM at BRD4 (BDI_K57-E168) and 0.0021 µM at BRD4 (BDII_E352-M457).

In the case of `Cc1cc(F)cc(Cl)c1Oc1ccc(C(C)(O)CO)cc1-c1cn(C)c(=O)c2[nH]c(C(=O)NC(C)(C)C)cc12` (centres unmarked) [Example 118, N-tert-butyl-4-[2-(2-chloro-4-fluoro-6-methylphenoxy)-5-(1,2-dihydroxypropan-2-yl)phenyl]-6-methyl-7-oxo-6,7-dihydro-1H-pyrrolo[2,3-c]pyridine-2-carboxamide], the figures for the Ki at BRD4 (BDI_K57-E168) and at BRD4 (BDII_E352-M457) were 1.39 µM and 0.0104 µM, respectively.

Take `Cc1cccc(Cl)c1Oc1ccc(C(C)(C)O)cc1-c1cn(C)c(=O)c2[nH]c(C(=O)NC3(C)CC3(F)F)cc12` (centres unmarked) [Example 42, 4-[2-(2-chloro-6-methylphenoxy)-5-(2-hydroxypropan-2-yl)phenyl]-N-(2,2-difluoro-1-methylcyclopropyl)-6-methyl-7-oxo-6,7-dihydro-1H-pyrrolo[2,3-c]pyridine-2-carboxamide]: the results for the inhibition constant Ki at BRD4 (BDI_K57-E168) and on BRD4 (BDII_E352-M457) were 0.704 µM and 0.0057 µM, respectively.

With `Cc1cccc(Cl)c1Oc1ncc(C(C)(C)O)cc1-c1cn(C)c(=O)c2[nH]c(C(=O)NC3(C)CC3(F)F)cc12` (centres unmarked) [Example 39, 4-[2-(2-chloro-6-methylphenoxy)-5-(2-hydroxypropan-2-yl)pyridin-3-yl]-N-(2,2-difluoro-1-methylcyclopropyl)-6-methyl-7-oxo-6,7-dihydro-1H-pyrrolo[2,3-c]pyridine-2-carboxamide], the inhibition constant (Ki) was 0.64 µM at BRD4 (BDI_K57-E168) and 0.0113 µM on BRD4 (BDII_E352-M457).

On to `CCNC(=O)c1cc2c(-c3cc(C(C)(C)O)cnc3Oc3c(C)cc(C(C)(C)O)cc3C)cn(C)c(=O)c2[nH]1` [Example 124, N-ethyl-4-{5-(2-hydroxypropan-2-yl)-2-[4-(2-hydroxypropan-2-yl)-2,6-dimethylphenoxy]pyridin-3-yl}-6-methyl-7-oxo-6,7-dihydro-1H-pyrrolo[2,3-c]pyridine-2-carboxamide], for which the Ki is 0.269 µM on BRD4 (BDI_K57-E168) and 0.0017 µM on BRD4 (BDII_E352-M457).

Consider `Cc1cccc(C)c1Oc1ccc(C(C)(C)O)cc1-c1cn(C)c(=O)c2[nH]c(C(N)=O)cc12` [Example 117, 4-[2-(2,6-dimethylphenoxy)-5-(2-hydroxypropan-2-yl)phenyl]-6-methyl-7-oxo-6,7-dihydro-1H-pyrrolo[2,3-c]pyridine-2-carboxamide], for which the inhibition constant Ki is 0.215 µM at BRD4 (BDI_K57-E168) and 0.0015 µM at BRD4 (BDII_E352-M457).

Turning to `CCNC(=O)c1cc2c(-c3cc(C(C)(C)O)ccc3Oc3c(C)ccc(Cl)c3C)cn(C)c(=O)c2[nH]1` [Example 99, 4-[2-(3-chloro-2,6-dimethylphenoxy)-5-(2-hydroxypropan-2-yl)phenyl]-N-ethyl-6-methyl-7-oxo-6,7-dihydro-1H-pyrrolo[2,3-c]pyridine-2-carboxamide], the inhibition constant Ki was 0.431 µM at BRD4 (BDI_K57-E168) and 0.0018 µM on BRD4 (BDII_E352-M457).

For `CCNC(=O)c1cc2c(-c3nc(C(C)(C)O)ccc3Oc3c(C)cccc3C)cn(C)c(=O)c2[nH]1` [Example 77, 4-[3-(2,6-dimethylphenoxy)-6-(2-hydroxypropan-2-yl)pyridin-2-yl]-N-ethyl-6-methyl-7-oxo-6,7-dihydro-1H-pyrrolo[2,3-c]pyridine-2-carboxamide], the inhibition constant Ki is 0.606 µM on BRD4 (BDI_K57-E168) and 0.0022 µM on BRD4 (BDII_E352-M457).
